US12187742B2 (XRAD Therapeutics, Inc., priority 2018, dated 2025)
pIC50: −log10 of the molar value. Where a name gives a salt, the structure may show the parent alone.

How the values were obtained:
[1] = target: ATM (Homo sapiens (Human), UniProt Q13315); experiment: ATM in Cell Western Assay (pKAP1 in etoposide-treated MCF-7 cells); format: cell-based
Procedure, shortened: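 Cells received compounds in a 10-dose, 3-fold series from a 1 μM final top concentration, then 100 μM etoposide, for 1 hr at 37° C. They were then fixed with paraformaldehyde and permeabilized with 0.1% Triton X-100. After immunostaining, plates were scanned on an infrared imager.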

[2] = target: DNA-PK (Homo sapiens (Human), UniProt P78527); experiment: DNA-PK Enzyme-Linked Immunosorbent Assay (phosphorylation of GST-p53 (1-101) peptide); format: biochemical; conditions: ELISA
Description: Assay of Compounds ATM and DNA-PK Inhibition
remove wash solution, turn plate upside down onto a thin paper towel and centrifuge at 1000 rpm for 1 min to absorb all wash buffer. Clean the bottom of plate with moist lint free paper. Scan plate immediately using ODYSSEY CLx (LI-COR) for the best results. DNA-PK Enzyme-Linked Immunosorbent Assay:
On day one, coat 96-well plate (ThermoFisher. Cat #: 442404) with GST-p53 (1-101) peptide (purified by Pharmaron, BCS department) by diluting 3 μg of GST-p53 each well with 0.1 M Na2CO3/NaHCO3, pH 9.6. Incubate the plate overnight at 4° C. The second day, remove coating buffer, wash 2× with PBST (1×PBS containing 0.1% Tween-20). Then add DNA-PK enzyme solution (Invitrogen, #PR9107A; the final DNA-PK concentration is 0.1 μg/mL), series dilution compounds (the final top concentration is 100 nM, 3 fold series dilution, with total 10 doses) and ATP solution (the final ATP concentration is 20 μM) to the 96-well plate. Incubate the plate at 25° C. for 1 hour. Then wash 3× with PBST (1×PBS containing 0.1% Tween-20). Block the plate with PBST+ 1% BSA at 4° C. overnight. The third day, wash 4× with PBST (1×PBS containing 0.1% Tween-20). Then add Phospho-p53 primary antibody (cell signaling Technology, #9286, Phospho-p53 (Ser15) (16G8) Mouse mAb) (1/1000) to each well. Seal with plate and incubate the plate for 1 h at 37° C. Wash 4× with PBST (1×PBS containing 0.1% Tween-20), add 100 μL of HRP-linked secondary antibody (Cell signaling Technology, #7076, Anti-mouse IgG, HRP-linked Antibody) (1/1000) to each well. Seal with tape and incubate the plate for 30 min at 37° C. Wash 4× with PBST (1×PBS containing 0.1% Tween-20), add 100 μL of TMB (Cell signaling Technology, #7004) substrate to each well. Seal with tape and incubate the plate for 10 min at 37° C. Then add 100 μL of Stop solution (Cell signaling Technology, #7002) to each well. Read the plate at 450 nm to detect absorption.

[3] = MCF-7 cells, etoposide 100 μM, 1 hr, pKAP1 readout
[4] = pKAP1 in etoposide-treated MCF-7 cells

ATM, sequence (Q13315 whole entry): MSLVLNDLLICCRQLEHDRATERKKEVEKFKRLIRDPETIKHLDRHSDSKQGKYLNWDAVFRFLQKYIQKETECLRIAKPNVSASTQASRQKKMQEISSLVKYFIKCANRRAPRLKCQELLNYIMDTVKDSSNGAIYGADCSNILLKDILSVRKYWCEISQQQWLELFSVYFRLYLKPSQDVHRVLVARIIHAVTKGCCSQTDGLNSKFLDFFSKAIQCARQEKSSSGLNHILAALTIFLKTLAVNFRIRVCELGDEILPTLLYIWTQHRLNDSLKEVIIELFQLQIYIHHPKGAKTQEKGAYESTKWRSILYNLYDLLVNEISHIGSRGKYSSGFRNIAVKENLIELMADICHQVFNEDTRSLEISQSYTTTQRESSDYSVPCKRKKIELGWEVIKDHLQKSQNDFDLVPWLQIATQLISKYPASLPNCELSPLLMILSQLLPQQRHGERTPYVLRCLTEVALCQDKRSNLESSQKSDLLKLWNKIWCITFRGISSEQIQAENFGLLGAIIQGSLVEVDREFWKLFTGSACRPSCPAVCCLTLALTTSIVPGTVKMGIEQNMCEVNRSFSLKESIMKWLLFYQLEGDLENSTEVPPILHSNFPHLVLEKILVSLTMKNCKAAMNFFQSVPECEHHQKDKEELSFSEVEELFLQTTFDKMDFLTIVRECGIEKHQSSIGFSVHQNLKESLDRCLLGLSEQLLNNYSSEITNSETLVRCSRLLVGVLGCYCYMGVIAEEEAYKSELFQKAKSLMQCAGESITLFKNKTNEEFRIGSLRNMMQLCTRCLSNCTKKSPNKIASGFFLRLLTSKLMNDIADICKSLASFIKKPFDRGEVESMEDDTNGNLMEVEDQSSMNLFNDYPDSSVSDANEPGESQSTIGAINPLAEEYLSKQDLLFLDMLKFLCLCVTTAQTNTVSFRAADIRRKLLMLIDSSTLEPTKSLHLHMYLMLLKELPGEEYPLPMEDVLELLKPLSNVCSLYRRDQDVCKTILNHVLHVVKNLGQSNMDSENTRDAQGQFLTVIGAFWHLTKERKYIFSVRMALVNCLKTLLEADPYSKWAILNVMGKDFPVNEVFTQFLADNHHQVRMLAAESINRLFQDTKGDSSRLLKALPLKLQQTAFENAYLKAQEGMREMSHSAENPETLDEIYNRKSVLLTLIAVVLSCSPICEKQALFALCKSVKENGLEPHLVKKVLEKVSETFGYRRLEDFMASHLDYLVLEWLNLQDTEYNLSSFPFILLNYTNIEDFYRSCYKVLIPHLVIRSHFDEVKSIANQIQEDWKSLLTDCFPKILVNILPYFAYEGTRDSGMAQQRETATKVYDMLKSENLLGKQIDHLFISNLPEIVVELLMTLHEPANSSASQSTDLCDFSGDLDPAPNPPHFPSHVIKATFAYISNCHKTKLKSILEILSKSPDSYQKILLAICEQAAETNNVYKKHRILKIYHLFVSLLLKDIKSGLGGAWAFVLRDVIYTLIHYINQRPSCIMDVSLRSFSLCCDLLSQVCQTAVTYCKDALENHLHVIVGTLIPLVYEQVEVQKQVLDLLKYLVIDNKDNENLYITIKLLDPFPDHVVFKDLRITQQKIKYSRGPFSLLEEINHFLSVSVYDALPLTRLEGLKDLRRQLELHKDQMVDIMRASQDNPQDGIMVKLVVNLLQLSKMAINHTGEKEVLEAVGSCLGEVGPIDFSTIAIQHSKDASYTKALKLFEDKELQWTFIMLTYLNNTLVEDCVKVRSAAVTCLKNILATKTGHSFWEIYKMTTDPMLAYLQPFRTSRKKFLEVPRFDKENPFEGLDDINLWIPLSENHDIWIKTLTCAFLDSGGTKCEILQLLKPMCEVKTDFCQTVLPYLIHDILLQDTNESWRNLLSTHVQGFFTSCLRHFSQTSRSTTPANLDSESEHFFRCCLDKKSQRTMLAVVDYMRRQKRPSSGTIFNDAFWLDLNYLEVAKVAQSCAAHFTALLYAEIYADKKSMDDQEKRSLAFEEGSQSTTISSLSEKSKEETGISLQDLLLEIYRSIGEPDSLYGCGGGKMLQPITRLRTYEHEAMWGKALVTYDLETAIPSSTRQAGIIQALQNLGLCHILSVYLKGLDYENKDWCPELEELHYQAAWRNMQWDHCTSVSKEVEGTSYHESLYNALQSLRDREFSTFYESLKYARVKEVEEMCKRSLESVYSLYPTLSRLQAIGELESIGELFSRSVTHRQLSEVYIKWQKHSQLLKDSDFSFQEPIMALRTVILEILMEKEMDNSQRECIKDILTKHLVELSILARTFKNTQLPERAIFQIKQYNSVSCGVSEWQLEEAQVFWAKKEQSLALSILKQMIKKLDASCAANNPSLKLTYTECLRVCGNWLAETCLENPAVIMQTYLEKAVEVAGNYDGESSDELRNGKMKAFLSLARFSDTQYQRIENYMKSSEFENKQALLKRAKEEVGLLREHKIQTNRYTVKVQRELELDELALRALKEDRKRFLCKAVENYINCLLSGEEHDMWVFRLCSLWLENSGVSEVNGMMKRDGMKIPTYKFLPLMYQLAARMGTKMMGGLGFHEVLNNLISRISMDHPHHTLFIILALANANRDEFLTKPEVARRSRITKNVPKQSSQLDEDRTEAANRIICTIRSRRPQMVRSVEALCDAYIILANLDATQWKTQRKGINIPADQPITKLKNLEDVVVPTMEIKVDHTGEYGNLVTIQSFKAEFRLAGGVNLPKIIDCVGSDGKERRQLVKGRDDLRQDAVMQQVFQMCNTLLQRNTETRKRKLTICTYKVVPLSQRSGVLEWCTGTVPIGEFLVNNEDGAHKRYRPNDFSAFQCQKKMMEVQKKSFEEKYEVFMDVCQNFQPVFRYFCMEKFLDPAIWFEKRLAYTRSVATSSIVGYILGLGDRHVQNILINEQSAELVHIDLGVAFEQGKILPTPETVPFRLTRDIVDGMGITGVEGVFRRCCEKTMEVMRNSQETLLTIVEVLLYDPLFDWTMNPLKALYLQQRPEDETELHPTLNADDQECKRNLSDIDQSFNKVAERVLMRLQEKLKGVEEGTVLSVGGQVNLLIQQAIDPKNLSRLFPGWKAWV

SMILES | pIC50 [1, 3] | pIC50 ([2]; ATP 20 μM) | pIC50 [1, 4] | pIC50 ([2]; 20 μM ATP)
CN(C)CCCOc1ncc(-c2ccc3ncc4c(c3c2)C2(CCC2)C(=O)N4C)cc1NS(=O)(=O)CCN [Example 223, 2-Amino-N-(2-(3-(dimethylamino)propoxy)-5-(3′-methyl-2′-oxo-2′,3′-dihydrospiro[cyclobutane-1,1′-pyrrolo[2,3-c]quinolin]-8′-yl)pyridin-3-yl)ethane-1-sulfonamide] | 7.00 to 9.00 | > 9.30 | – | –
CN(C)CCCOc1ncc(-c2ccc3ncc4c(c3c2)C2(CCC2)C(=O)N4C)cc1NS(=O)(=O)c1ccccc1 [Example 5, N-(2-(3-(Dimethylamino)propoxy)-5-(3′-methyl-2′-oxo-2′,3′-dihydrospiro [cyclobutane-1,1′-pyrrolo [2,3-c]quinolin]-8′-yl)pyridin-3-yl)benzenesulfonamide] | 7.00 to 9.00 | > 9.30 | – | –
COc1ccc(N2CC3(C2)C(=O)N(C)c2cnc4cc(F)c(-c5cnc(OCCNC(C)C)c(NS(C)(=O)=O)c5)cc4c23)cc1 [Example 533, N-(5-(7′-Fluoro-1-(4-methoxyphenyl)-3 methyl-2′-oxo-2′,3′-dihydrospiro [azetidine-3,1′-pyrrolo[2,3-c]quinolin]-8′-yl)-2-(2-(isopropylamino)ethoxy)pyridin-3-yl)methanesulfonamide] | – | – | 7.00 to 9.00 | 7.00 to 9.00
CN1C(=O)C2(CCC2)c2c1cnc1ccc(-c3cnc(OCCCN4CCCC4)c(NS(C)(=O)=O)c3)cc21 [Example 236, N-(5-(3′-Methyl-2′-oxo-2′,3′-dihydrospiro[cyclobutane-1,1′-pyrrolo[2,3-c]quinolin]-8′-yl)-2-(3-(pyrrolidin-1-yl)propoxy)pyridin-3-yl)methanesulfonamide] | 7.00 to 9.00 | 9.00 to 9.30 | – | –
CN(C)CCCOc1ncc(-c2ccc3ncc4c(c3c2)C2(CC2)C(=O)N4C)cn1 [Example 71, 8′-(2-(3-(Dimethylamino)propoxy)pyrimidin-5-yl)-3′-methylspiro [cyclopropane-1,1′-pyrrolo[2,3-c]quinolin]-2′(3′-H)-one] | 7.00 to 9.00 | < 7.00 | – | –
COCCN(C)CCCOc1ncc(-c2cc3c4c(cnc3cc2F)N(C)C(=O)C42CCC2)cc1NS(=O)(=O)N1CCOCC1 [Example 294, N-(5-(7′-Fluoro-3′-methyl-2′-oxo-2′,3′-dihydrospiro[cyclobutane-1,1′-pyrrolo[2,3-c]quinolin]-8′-yl)-2-(3-((2-methoxyethyl)(methyl)amino)propoxy)pyridin-3-yl)morpholine-4-sulfonamide] | 7.00 to 9.00 | 7.00 to 9.00 | – | –
CCS(=O)(=O)Nc1cc(-c2cc3c4c(cnc3cc2F)N(C)C(=O)C42CN(c3ccccc3)C2)cnc1OCCNC(C)C [Example 522, N-(5-(7′-Fluoro-3′-methyl-2′-oxo-1-phenyl-2′,3′-dihydrospiro[azetidine-3,1′-pyrrolo[2,3-c]quinolin]-8′-yl)-2-(2-(isopropylamino)ethoxy)pyridin-3-yl)ethanesulfonamide hydrochloride] | – | – | 7.00 to 9.00 | 9.00 to 9.30
CN1C(=O)C2(CCC2)c2c1cnc1ccc(-c3cnc(N4CCC(N(C)C)CC4)c(NS(=O)(=O)N(C)C)c3)cc21 [Example 226, 8′-{6-[4-(Dimethylamino)piperidin-1-yl]-5-[(dimethylsulfamoyl)amino]pyridin-3-yl}-3′-methyl-2′,3′-dihydrospiro[cyclobutane-1,1′-pyrrolo[2,3-c]quinoline]-2′-one] | 9.00 to 9.30 | > 9.30 | – | –
COC1CCCN(CCCOc2ncc(-c3ccc4ncc5c(c4c3)C3(CCC3)C(=O)N5C)cc2NS(C)(=O)=O)C1 (stereo not drawn) [Example 280, N-(2-(3-(3-Methoxypiperidin-1-yl)propoxy)-5-(3′-methyl-2′-oxo-2′,3′-dihydrospiro[cyclobutane-1,1′-pyrrolo[2,3-c]quinolin]-8′-yl)pyridin-3-yl)methanesulfonamide] | 7.00 to 9.00 | 9.00 to 9.30 | – | –
Cc1ccc(S(=O)(=O)Nc2cc(-c3ccc4ncc5c(c4c3)C3(CC3)C(=O)N5C)cnc2N2CCC(N3CCCCC3)CC2)cn1 [Example 218] | 7.00 to 9.00 | > 9.30 | – | –
CN1C(=O)C2(CCC2)c2c1cnc1ccc(-c3cnc(OCCCN4CCCCC4)c(NS(=O)(=O)N(C)C)c3)cc21 [Example 180, hydrochloride] | 7.00 to 9.00 | 9.00 to 9.30 | – | –
CN1C(=O)C2(CCC2)c2c1cnc1ccc(-c3cnc(OCCCN4CCOCC4)c(NS(C)(=O)=O)c3)cc21 [Example 305, N-(5-(3′-Methyl-2′-oxo-2′,3′-dihydrospiro[cyclobutane-1,1′-pyrrolo[2,3-c]quinolin]-8′-yl)-2-(3-morpholinopropoxy)pyridin-3-yl)methanesulfonamide] | 7.00 to 9.00 | 7.00 to 9.00 | – | –
CO[C@H]1C[C@@]2(C1)C(=O)N(C)c1cnc3ccc(-c4cnc(OCCNC(C)C)c(NS(C)(=O)=O)c4)cc3c12 [Example 384, trans-N-(2-(2-(Isopropylamino)ethoxy)-5-(3-methoxy-3′-methyl-2′-oxo-2,3′-dihydrospiro[cyclobutane-1,1′-pyrrolo[2,3-c]quinolin]-8′-yl)pyridin-3-yl)methanesulfonamide hydrochloride] | – | – | 7.00 to 9.00 | > 9.30
CN(C)CC(O)COc1ncc(-c2ccc3ncc4c(c3c2)C2(CCC2)C(=O)N4C)cc1NS(C)(=O)=O (stereo not drawn) [Example 295, N-(2-(3-(Dimethylamino)-2-hydroxypropoxy)-5-(3′-methyl-2′-oxo-2′,3′-dihydrospiro[cyclobutane-1,1′-pyrrolo[2,3-c]quinolin]-8′-yl)pyridin-3-yl)methanesulfonamide] | 7.00 to 9.00 | 9.00 to 9.30 | – | –
CC(C)NCCOc1ncc(-c2cc3c(cc2F)ncc2c3[C@]3(C[C@@H](c4ccncc4)C3)C(=O)N2C)cc1NS(C)(=O)=O [Example 439, trans-N-{5-(7′-Fluoro-3′-methyl-2′-oxo-3-(pyridin-4-yl)-2′,3′-dihydrospiro[cyclobutane-1,1′-pyrrolo[2,3-c]quinolin]-8′-yl)-2-(2-(isopropylamino)ethoxy)pyridin-3-yl)methanesulfonamide] | – | – | < 7.00 | 7.00 to 9.00
CC(C)NCCOc1ncc(-c2cc3c4c(cnc3cc2F)N(C)C(=O)C42CCC2)cc1NS(=O)(=O)C1CC1 [Example 365, N-(5-(7′-Fluoro-3′-methyl-2′-oxo-2′,3′-dihydrospiro[cyclobutane-1,1′-pyrrolo[2,3-c]quinolin]-8′-yl)-2-(2-(isopropylamino)ethoxy)pyridin-3-yl)cyclopropanesulfonamide hydrochloride] | – | – | 7.00 to 9.00 | 7.00 to 9.00
CNCCCOc1ncc(-c2ccc3ncc4c(c3c2)C2(CCC2)C(=O)N4C)cc1NS(C)(=O)=O [Example 240, N-(5-(3′-Methyl-2′-oxo-2′,3′-dihydrospiro[cyclobutane-1,1′-pyrrolo[2,3-c]quinolin]-8′-yl)-2-(3-(methylamino)propoxy)pyridin-3-yl) methanesulfonamide formate] | 7.00 to 9.00 | > 9.30 | – | –
CC(C)NCCOc1ncc(-c2cc3c4c(cnc3cc2F)N(C)C(=O)C42CN(c3ccc(Cl)cc3)C2)cc1NS(C)(=O)=O [Example 523, N-(5-(1-(4-Chlorophenyl)-7′-fluoro-3′-methyl-2′-oxo-2′,3′-dihydrospiro[azetidine-3,1′-pyrrolo[2,3-c]quinolin]-8′-yl)-2-(2-(isopropylamino)ethoxy)pyridin-3-yl)methanesulfonamide hydrochloride] | – | – | 7.00 to 9.00 | > 9.30
